Assay results: publication PMC5218480 (PLoS ONE, 2017)

Test system: MV-4-11 cells
Assay: Gene expression microarray analysis (Affymetrix PrimeView) and GSEA
Type: cell-based, human
Set-up: RFU PODN (11730768_x_at) / Fold change /veh PODN (11730768_x_at) / RFU LINC00158 (11744669_a_at) / Fold change /veh LINC00158 (11744669_a_at) / RFU DUSP10 (11751237_a_at) / Fold change /veh DUSP10 (11751237_a_at) / RFU ID3 (11757404_x_at) / Fold change /veh ID3 (11757404_x_at) / RFU PLEKHG5 (11737974_s_at) / Fold change /veh PLEKHG5 (11737974_s_at) / RFU LRRC4B (11730491_at) / Fold change /veh LRRC4B (11730491_at) / RFU GIMAP4 (11747438_a_at) / Fold change /veh GIMAP4 (11747438_a_at) / RFU KRT8 (11758183_x_at) / Fold change /veh KRT8 (11758183_x_at) / RFU CNN1 (11734310_a_at) / Fold change /veh CNN1 (11734310_a_at) / RFU VPS37D (11726825_at) / Fold change /veh VPS37D (11726825_at) / RFU C10orf10 (11716522_x_at) / Fold change /veh C10orf10 (11716522_x_at) / RFU KIR2DL2 /// KIR2DL4 /// KIR2DL5A /// KIR2DL5B /// KIR2DS1 /// KIR2DS2 /// KIR2DS3 /// KIR2DS4 /// KIR3DL3 /// KIR3DL3 /// KIR3DS1 (11738374_at) / Fold change /veh KIR2DL2 /// KIR2DL4 /// KIR2DL5A /// KIR2DL5B /// KIR2DS1 /// KIR2DS2 /// KIR2DS3 /// KIR2DS4 /// KIR3DL3 /// KIR3DL3 /// KIR3DS1 (11738374_at) / RFU C1QL1 (11718748_at) / Fold change /veh C1QL1 (11718748_at) / RFU TMPRSS4 (11747572_a_at) / Fold change /veh TMPRSS4 (11747572_a_at) / RFU HAMP (11756126_x_at) / Fold change /veh HAMP (11756126_x_at) / RFU RNFT2 (11725882_a_at) / Fold change /veh RNFT2 (11725882_a_at) / RFU NR4A2 (11747474_a_at) / Fold change /veh NR4A2 (11747474_a_at) / RFU ABCC12 (11746883_a_at) / Fold change /veh ABCC12 (11746883_a_at) / RFU TMEM136 (11760407_x_at) / Fold change /veh TMEM136 (11760407_x_at) / RFU CLDN22 /// WWC2 (11732394_at) / Fold change /veh CLDN22 /// WWC2 (11732394_at) / RFU HLA-DPB1 (11760878_x_at) / Fold change /veh HLA-DPB1 (11760878_x_at) / RFU SPINT1 (11716480_a_at) / Fold change /veh SPINT1 (11716480_a_at) / RFU GAP43 (11754022_s_at) / Fold change /veh GAP43 (11754022_s_at) / RFU A4GNT (11735810_at) / Fold change /veh A4GNT (11735810_at) / RFU PRB3 (11715151_x_at) / Fold change /veh PRB3 (11715151_x_at) / RFU TUBB4B (11761932_at) / Fold change /veh TUBB4B (11761932_at) / RFU CAPN14 (11732068_a_at) / Fold change /veh CAPN14 (11732068_a_at) / RFU TMCC2 (11721928_a_at) / Fold change /veh TMCC2 (11721928_a_at) / RFU IRGQ (11745062_a_at) / Fold change /veh IRGQ (11745062_a_at) / RFU FAM174B (11720279_a_at) / Fold change /veh FAM174B (11720279_a_at) / RFU TMPRSS4 (11748680_a_at) / Fold change /veh TMPRSS4 (11748680_a_at) / RFU FAM212B (11763350_a_at) / Fold change /veh FAM212B (11763350_a_at) / RFU PLEKHG5 (11743358_a_at) / Fold change /veh PLEKHG5 (11743358_a_at) / RFU ZSCAN30 (11745921_a_at) / Fold change /veh ZSCAN30 (11745921_a_at) / RFU CMKLR1 (11741424_a_at) / Fold change /veh CMKLR1 (11741424_a_at) / RFU LOC101060620 /// MAPK8IP1 (11723275_at) / Fold change /veh LOC101060620 /// MAPK8IP1 (11723275_at) / RFU SPTSSB (11747773_x_at) / Fold change /veh SPTSSB (11747773_x_at) / RFU PRSS12 (11739890_at) / Fold change /veh PRSS12 (11739890_at) / RFU BIN1 (11741810_x_at) / Fold change /veh BIN1 (11741810_x_at) / RFU WNT11 (11732464_a_at) / Fold change /veh WNT11 (11732464_a_at) / RFU C10orf10 (11716521_a_at) / Fold change /veh C10orf10 (11716521_a_at) / RFU C5orf56 (11738089_at) / Fold change /veh C5orf56 (11738089_at) / RFU CYB561 (11721691_x_at) / Fold change /veh CYB561 (11721691_x_at) / RFU ANKRD19P (11752326_a_at) / Fold change /veh ANKRD19P (11752326_a_at) / RFU OR2T12 /// OR2T33 /// OR2T8 (11738714_s_at) / Fold change /veh OR2T12 /// OR2T33 /// OR2T8 (11738714_s_at) / RFU VCAN (11748164_a_at) / Fold change /veh VCAN (11748164_a_at) / RFU JSRP1 (11732532_at) / Fold change /veh JSRP1 (11732532_at) / RFU KRTAP10-11 (11738290_x_at) / Fold change /veh KRTAP10-11 (11738290_x_at) / RFU MYO3A (11730013_a_at) / Fold change /veh MYO3A (11730013_a_at) / RFU EBF3 (11725865_a_at) / Fold change /veh EBF3 (11725865_a_at) / RFU CAMK2N1 (11719241_x_at) / Fold change /veh CAMK2N1 (11719241_x_at) / RFU C5orf56 (11738088_a_at) / Fold change /veh C5orf56 (11738088_a_at) / RFU OLFML3 (11715873_a_at) / Fold change /veh OLFML3 (11715873_a_at) / RFU LOC100653217 /// NTM (11731650_a_at) / Fold change /veh LOC100653217 /// NTM (11731650_a_at) / RFU MAPK11 (11762145_a_at) / Fold change /veh MAPK11 (11762145_a_at) / RFU FIZ1 (11724087_x_at) / Fold change /veh FIZ1 (11724087_x_at) / RFU OASL (11726364_x_at) / Fold change /veh OASL (11726364_x_at) / RFU SOX15 (11748057_x_at) / Fold change /veh SOX15 (11748057_x_at) / RFU CD79A (11719716_a_at) / Fold change /veh CD79A (11719716_a_at) / RFU HIST1H1D (11736915_at) / Fold change /veh HIST1H1D (11736915_at) / RFU CASKIN2 (11723855_a_at) / Fold change /veh CASKIN2 (11723855_a_at) / RFU LOC730098 (11760151_x_at) / Fold change /veh LOC730098 (11760151_x_at) / RFU OR4N2 (11742367_at) / Fold change /veh OR4N2 (11742367_at) / RFU PRRT2 (11749266_a_at) / Fold change /veh PRRT2 (11749266_a_at) / RFU SNX32 (11753110_a_at) / Fold change /veh SNX32 (11753110_a_at) / RFU CDHR5 (11726645_a_at) / Fold change /veh CDHR5 (11726645_a_at) / RFU RCAN1 (11760418_a_at) / Fold change /veh RCAN1 (11760418_a_at) / RFU FAM167A (11723789_a_at) / Fold change /veh FAM167A (11723789_a_at) / RFU FAM26E (11764081_at) / Fold change /veh FAM26E (11764081_at) / RFU ISYNA1 (11749810_s_at) / Fold change /veh ISYNA1 (11749810_s_at) / RFU ACY1 (11761880_at) / Fold change /veh ACY1 (11761880_at) / RFU 11764098_at / Fold change /veh 11764098_at / RFU SAMD14 (11745864_x_at) / Fold change /veh SAMD14 (11745864_x_at) / RFU NPB (11741838_a_at) / Fold change /veh NPB (11741838_a_at) / RFU TMPRSS6 (11731388_a_at) / Fold change /veh TMPRSS6 (11731388_a_at) / RFU KRTAP10-2 (11738614_at) / Fold change /veh KRTAP10-2 (11738614_at) / RFU ARHGAP8 /// PRR5-ARHGAP8 (11727945_x_at) / Fold change /veh ARHGAP8 /// PRR5-ARHGAP8 (11727945_x_at) / RFU KRTAP5-7 /// NADSYN1 (11734609_at) / Fold change /veh KRTAP5-7 /// NADSYN1 (11734609_at) / RFU RASL12 (11751679_a_at) / Fold change /veh RASL12 (11751679_a_at) / RFU CDKN2B (11736163_a_at) / Fold change /veh CDKN2B (11736163_a_at) / RFU PRF1 (11729649_at) / Fold change /veh PRF1 (11729649_at) / RFU, ZNF638 /// ZNF638-IT1 / Fold change vs veh, ZNF638 /// ZNF638-IT1 / RFU, PANK3 / Fold change vs veh, PANK3 / RFU, SH3YL1 / Fold change vs veh, SH3YL1 / RFU, ZEB2 / Fold change vs veh, ZEB2 / RFU, NRIP1 / Fold change vs veh, NRIP1 / RFU, PTTG1IP / Fold change vs veh, PTTG1IP / RFU, CAPN2 / Fold change vs veh, CAPN2 / RFU, MED14 / Fold change vs veh, MED14 / RFU, SNORA58 / Fold change vs veh, SNORA58 / RFU, C1orf63 / Fold change vs veh, C1orf63 / RFU, LRRFIP1 / Fold change vs veh, LRRFIP1 / RFU, NDUFAF7 / Fold change vs veh, NDUFAF7 / RFU, SLC12A2 / Fold change vs veh, SLC12A2 / RFU, IBTK / Fold change vs veh, IBTK / RFU, ESF1 / Fold change vs veh, ESF1 / Fold change vs veh, TMEM50B / RFU, TAOK1 / Fold change vs veh, TAOK1 / RFU, ACBD3 / Fold change vs veh, ACBD3 / RFU, TMA16 / Fold change vs veh, TMA16 / RFU, RWDD3 / Fold change vs veh, RWDD3 / RFU, BCAT1 / Fold change vs veh, BCAT1 / RFU, EDEM3 / Fold change vs veh, EDEM3 / RFU, TMEM33 / Fold change vs veh, TMEM33 / RFU, WDR75 / Fold change vs veh, WDR75 / RFU, AHCTF1 / Fold change vs veh, AHCTF1 / RFU, TFRC / Fold change vs veh, TFRC / RFU, ZDHHC17 / Fold change vs veh, ZDHHC17 / RFU, NOM1 / Fold change vs veh, NOM1 / RFU, ARL8B / Fold change vs veh, ARL8B / RFU, ZBTB11 / Fold change vs veh, ZBTB11 / RFU, TAMM41 / Fold change vs veh, TAMM41 / RFU, KIAA1704 /// LOC100996395 / Fold change vs veh, KIAA1704 /// LOC100996395 / RFU, ING1 / Fold change vs veh, ING1 / RFU, TRMT61B / Fold change vs veh, TRMT61B / RFU, FUBP3 / Fold change vs veh, FUBP3 / RFU, TP53 / Fold change vs veh, TP53 / RFU, TNKS2 / Fold change vs veh, TNKS2 / RFU, ZFP14 / Fold change vs veh, ZFP14 / RFU, ACTR2 / Fold change vs veh, ACTR2 / RFU, PPP3R1 / Fold change vs veh, PPP3R1 / RFU, PIK3R1 / Fold change vs veh, PIK3R1 / RFU, HNRNPA1 / Fold change vs veh, HNRNPA1 / RFU, RNF170 / Fold change vs veh, RNF170 / RFU, ZNF28 / Fold change vs veh, ZNF28 / RFU, RNGTT / Fold change vs veh, RNGTT / RFU, OGT / Fold change vs veh, OGT / RFU, BRD1 / Fold change vs veh, BRD1 / RFU, MARS / Fold change vs veh, MARS / RFU, ZNF655 / Fold change vs veh, ZNF655 / RFU, FAHD1 / Fold change vs veh, FAHD1 / RFU, BDP1 / Fold change vs veh, BDP1 / RFU, LRRCC1 / Fold change vs veh, LRRCC1 / RFU, ARID1A / Fold change vs veh, ARID1A / RFU, ZNF146 / Fold change vs veh, ZNF146 / RFU, ZNF330 / Fold change vs veh, ZNF330 / RFU, GPN3 / Fold change vs veh, GPN3 / RFU, C9orf123 / Fold change vs veh, C9orf123 / RFU, N4BP2L2 / Fold change vs veh, N4BP2L2 / RFU, ARFIP1 / Fold change vs veh, ARFIP1 / RFU, FAM179B / Fold change vs veh, FAM179B / RFU, BCL10 / Fold change vs veh, BCL10 / RFU, UHRF1BP1L / Fold change vs veh, UHRF1BP1L / RFU, BET1 / Fold change vs veh, BET1 / RFU, CNOT2 / Fold change vs veh, CNOT2 / RFU, ZNF268 / Fold change vs veh, ZNF268 / Fold change vs veh, ZNF507 / RFU, DGCR2 / Fold change vs veh, DGCR2 / RFU, WDSUB1 / Fold change vs veh, WDSUB1 / Fold change vs veh, HSP90B1 /// MIR3652 / RFU, ADSS / Fold change vs veh, ADSS / RFU, GK / Fold change vs veh, GK / RFU, ZNF148 / Fold change vs veh, ZNF148 / RFU, TAF9 / Fold change vs veh, TAF9 / RFU, SLC1A5 / Fold change vs veh, SLC1A5 / RFU, SLMO2 / Fold change vs veh, SLMO2 / RFU, ABCC4 / Fold change vs veh, ABCC4 / RFU, LOC101060439 /// RAP1B / Fold change vs veh, LOC101060439 /// RAP1B / RFU, RFX7 / Fold change vs veh, RFX7 / RFU, GTPBP10 / Fold change vs veh, GTPBP10 / RFU, CNEP1R1 / Fold change vs veh, CNEP1R1 / RFU, BIVM-ERCC5 /// ERCC5 / Fold change vs veh, BIVM-ERCC5 /// ERCC5 / RFU, ILF3 / Fold change vs veh, ILF3 / RFU 11762660_at / Fold change /veh 11762660_at / RFU VCAN (11757783_s_at) / Fold change /veh VCAN (11757783_s_at) / RFU DDX43 (11728927_at) / Fold change /veh DDX43 (11728927_at) / RFU KRT8 (11758188_x_at) / Fold change /veh KRT8 (11758188_x_at) / RFU NKD1 (11759106_at) / Fold change /veh NKD1 (11759106_at) / RFU SRD5A1 (11742802_a_at) / Fold change /veh SRD5A1 (11742802_a_at) / RFU TPSAB1 /// TPSB2 (11721975_s_at) / Fold change /veh TPSAB1 /// TPSB2 (11721975_s_at) / RFU GSTM3 (11746129_a_at) / Fold change /veh GSTM3 (11746129_a_at) / RFU IL23R (11737362_x_at) / Fold change /veh IL23R (11737362_x_at) / RFU TMEM51 (11727254_a_at) / Fold change /veh TMEM51 (11727254_a_at) / RFU PIWIL2 (11732686_x_at) / Fold change /veh PIWIL2 (11732686_x_at) / RFU ORM1 (11744905_x_at) / Fold change /veh ORM1 (11744905_x_at) / RFU CCDC152 (11743942_at) / Fold change /veh CCDC152 (11743942_at) / RFU ECM1 (11717891_a_at) / Fold change /veh ECM1 (11717891_a_at) / RFU IL23R (11748794_a_at) / Fold change /veh IL23R (11748794_a_at) / RFU TNFAIP8L3 (11732012_x_at) / Fold change /veh TNFAIP8L3 (11732012_x_at) / RFU MBOAT4 (11741988_at) / Fold change /veh MBOAT4 (11741988_at) / RFU 11764193_at / Fold change /veh 11764193_at / RFU TMEM53 (11763286_at) / Fold change /veh TMEM53 (11763286_at) / RFU MAGEB2 (11727129_at) / Fold change /veh MAGEB2 (11727129_at) / RFU TMEM200A (11744735_a_at) / Fold change /veh TMEM200A (11744735_a_at) / RFU CCDC152 (11751479_a_at) / Fold change /veh CCDC152 (11751479_a_at) / RFU FAM211A (11726209_a_at) / Fold change /veh FAM211A (11726209_a_at) / RFU RGS16 (11746705_a_at) / Fold change /veh RGS16 (11746705_a_at) / RFU VCAN (11755009_s_at) / Fold change /veh VCAN (11755009_s_at) / RFU RHOB (11743442_s_at) / Fold change /veh RHOB (11743442_s_at) / RFU RGS16 (11720943_a_at) / Fold change /veh RGS16 (11720943_a_at) / RFU RGS16 (11720944_at) / Fold change /veh RGS16 (11720944_at) / RFU, VPS4B / Fold change vs veh, VPS4B / RFU, CREB1 / Fold change vs veh, CREB1 / RFU, DNAJC13 / Fold change vs veh, DNAJC13 / RFU, GNAQ / Fold change vs veh, GNAQ / RFU, CDK5R1 / Fold change vs veh, CDK5R1 / RFU, ZRANB3 / Fold change vs veh, ZRANB3 / RFU, CUL4A / Fold change vs veh, CUL4A / RFU, CCNY / Fold change vs veh, CCNY / RFU, UFL1 / Fold change vs veh, UFL1 / RFU, COG3 / Fold change vs veh, COG3 / RFU, DIAPH2 / Fold change vs veh, DIAPH2 / RFU, SKA2 / Fold change vs veh, SKA2 / RFU, AFF3 / Fold change vs veh, AFF3 / RFU, LMF1 / Fold change vs veh, LMF1 / RFU, IPO11 / Fold change vs veh, IPO11 / RFU, DFFB / Fold change vs veh, DFFB / RFU, FOXP1 / Fold change vs veh, FOXP1 / RFU, CARD8 / Fold change vs veh, CARD8 / RFU, STRN3 / Fold change vs veh, STRN3 / RFU, ADK / Fold change vs veh, ADK / RFU, RASSF2 / Fold change vs veh, RASSF2 / RFU, WIPF1 / Fold change vs veh, WIPF1 / RFU, LARP1B / Fold change vs veh, LARP1B / RFU, RASA1 / Fold change vs veh, RASA1 / RFU, RB1 / Fold change vs veh, RB1 / RFU, PPFIA1 / Fold change vs veh, PPFIA1 / RFU, MAT2A / Fold change vs veh, MAT2A / RFU, CCT5 / Fold change vs veh, CCT5 / RFU, WDR92 / Fold change vs veh, WDR92 / RFU, CUX1 / Fold change vs veh, CUX1 / RFU, TTC7A / Fold change vs veh, TTC7A / RFU, TMEM135 / Fold change vs veh, TMEM135 / RFU, DEPTOR / Fold change vs veh, DEPTOR / RFU, CPM / Fold change vs veh, CPM / RFU, DNAJB6 / Fold change vs veh, DNAJB6 / RFU, CACNA2D3 / Fold change vs veh, CACNA2D3 / RFU, DTX4 / Fold change vs veh, DTX4 / RFU, TFCP2 / Fold change vs veh, TFCP2 / RFU, GMCL1 /// GMCL1P1 / Fold change vs veh, GMCL1 /// GMCL1P1 / RFU, AEBP2 / Fold change vs veh, AEBP2 / RFU, SNHG1 /// SNORD22 /// SNORD25 /// SNORD26 /// SNORD27 /// SNORD28 /// SNORD29 /// SNORD31 / Fold change vs veh, SNHG1 /// SNORD22 /// SNORD25 /// SNORD26 /// SNORD27 /// SNORD28 /// SNORD29 /// SNORD31 / Fold change (Aza/veh), C12orf56 (ProbeSet 11735607_a_at) / Fold change (ACY-1035/veh), C12orf56 (ProbeSet 11735607_a_at) / Fold change (Aza/veh), FGFR1OP (ProbeSet 11751329_s_at) / Fold change (ACY-1035/veh), FGFR1OP (ProbeSet 11751329_s_at) / Fold change (Aza/veh), VPS36 (ProbeSet 11739960_a_at) / Fold change (ACY-1035/veh), VPS36 (ProbeSet 11739960_a_at) / RFU SYPL1 (11715823_x_at) / Fold change /veh SYPL1 (11715823_x_at) / RFU IGFBP7 (11715501_s_at) / Fold change /veh IGFBP7 (11715501_s_at) / RFU REEP3 (11722064_at) / Fold change /veh REEP3 (11722064_at) / RFU IGLL1 (11728026_x_at) / Fold change /veh IGLL1 (11728026_x_at): dose or concentration left out as unconfirmed
Settings: MV-4-11 cells, 48 hours

Nc1ncn([C@@H]2O[C@H](CO)[C@@H](O)[C@H]2O)c(=O)n1 [azacitidine]
Fold change /veh C5orf56 (11738088_a_at): 0.98
